Consider 6 molecules from PMC6269660, “Anti-Inflammatory Cycloartane-Type Saponins of Astragalus membranaceus” (Molecules, 2013).

Structures are written as SMILES.

Common to all, as to type: cell-based
A short description of data set [1]: Cell viability by MTT reduction. To be noted: mouse, at a concentration of 100 μM, RAW 264.7 cells, MTT reduction, mean ± SD of three independent experiments. Here is the method: (§1) Assays for NO production and cell viability were carried out as previously described. Briefly, RAW 264.7 macrophages were harvested and seeded in 24-well plates (3 × 10^5 cells/well) for the measurement of NO production. The plates were pretreated with various concentrations of samples for 1 h and incubated with LPS (1 μg/mL) for 7 h. The amount of NO was determined by the nitrite concentration in the cultured RAW264.7 macrophage supernatants using the Griess reagent. The cell viability was evaluated by MTT reduction.
In general terms: Tetrazolium dyes change colour on reduction, which living cells bring about.

In another data set the test system is RAW 264.7 macrophages. Description: Cell viability by MTT reduction. To be noted: RAW 264.7 cells treated with compounds. The procedure: as §1
Data set [2] relates to LPS-induced NO production in RAW 264.7 macrophage cells. Description: Inhibition of LPS-induced NO production (nitrite, Griess reagent). To be noted: for inhibition of NO production (in words): LPS-induced RAW264.7 macrophages. Here is the method:
Previous studies have already reported on the anti-inflammatory effects of components obtained from A. membranaceus. Thus, we also investigated the inhibitory effects of compounds 1–5 on NO production by using the Griess reaction to measure nitrite, a soluble oxidation product of NO, in the culture medium of LPS-induced RAW 264.7 macrophages.
as §1
A general note: Nitrite, measured by Griess reagent, commonly stands in for NO production.

As a reminder, the viability is the share of living cells, or the viability signal relative to a control. Read a low viability as a greater loss of cells. Take `CC(=O)OC1C(OC2CCC34CC35CCC3(C)C(C(C)CCC(O)C(C)(C)O)CCC3(C)C5CC(OC3OC(CO)C(O)C(O)C3O)C4C2(C)C)OCC(O)C1O` [Compound 1, 3-O-β-(2'-O-acetyl)-D-xylopyranosyl-6-O-β-D-glucopyranosyl-(24S)-3β,6α,24α,25-tetrahydroxy-9,19-cyclolanostane]: in data set [1] (RAW 264.7 macrophages), the viability at 8 h, 100 µM amounted to 93.2 ± 6.96%. The “cell toxicity / influence on cell viability (in words)” value (shortened to “cell toxicity / influence”) in the data set with RAW 264.7 macrophages is “without cytotoxicity”. Further, the “inhibition of NO production (in words)” value in data set [2] is “significant inhibition of NO production”.
For the molecule `CC(=O)OC1C(O)COC(OC2CCC34CC35CCC3(C)C(C(C)CCC(O)C(C)(C)O)C(O)CC3(C)C5CC(OC3OC(CO)C(O)C(O)C3O)C4C2(C)C)C1OC(C)=O` (centres unmarked) [Compound 2, agroastragaloside I], in data set [1] (RAW 264.7 macrophages), the viability at 8 h, 100 µM was 54.5 ± 1.21%. In addition, the “cell toxicity / influence” value with RAW 264.7 macrophages was “Some cell toxicity was observed”.
On to `CC(C)(O)[C@@H]1CC[C@](C)([C@H]2[C@@H](O)C[C@@]3(C)[C@@H]4C[C@H](O[C@@H]5O[C@H](CO)[C@@H](O)[C@H](O)[C@H]5O)[C@H]5C(C)(C)[C@@H](O[C@@H]6OC[C@@H](O)[C@H](O)[C@H]6O)CC[C@@]56C[C@@]46CC[C@]23C)O1` [Compound 5, astragaloside IV], for which, in data set [1], the viability at 8 h, 100 µM was 94.4 ± 4.33%. In addition, the “cell toxicity / influence” value in the data set on RAW 264.7 macrophages is recorded as “without cytotoxicity”. Further, the “inhibition of NO production (in words)” value in data set [2] was “significant inhibition of NO production”.
By IC50 is commonly meant the point on the concentration scale where inhibition reaches its midpoint. In the case of `O=C(O)/C=C/c1ccc(O)c(O)c1` [Caffeic acid, reference compound], the viability at 8 h, 100 µM in data set [1] was 82.2 ± 1.64%. The half-inhibitory concentration (IC50) in data set [2] (Mus musculus, RAW264.7, LPS-activated RAW 264.7 cells, pretreated 1 h with compounds, then LPS (1 μg/mL) for 7 h, mean ± SD of three independent experiments) is 830 ± 1150 nM.
In data set [1] (RAW 264.7 macrophages), `CC(=O)O[C@@H]1[C@@H](O)[C@H](O[C@H]2CC[C@]34C[C@]35CC[C@]3(C)[C@@H]([C@@]6(C)CC[C@@H](C(C)(C)O)O6)[C@@H](O)C[C@@]3(C)[C@@H]5C[C@H](O[C@@H]3O[C@H](CO)[C@@H](O)[C@H](O)[C@H]3O)[C@H]4C2(C)C)OC[C@H]1O` [Compound 4, isoastragaloside II] gave a viability at 8 h, 100 µM of 69 ± 1.82%. Moreover, the “cell toxicity / influence” value in the data set with RAW 264.7 macrophages was “Some cell toxicity was observed”.
For `CC(=O)OC1C(OC2CCC34CC35CCC3(C)C(C(C)CCC(O)C(C)(C)O)C(O)CC3(C)C5CC(OC3OC(CO)C(O)C(O)C3O)C4C2(C)C)OCC(O)C1O` (centres unmarked) [Compound 3, agroastragaloside II], in that order: 47.6 ± 3.4% and “Some cell toxicity was observed”.
